Results as given in patent US5874597A, “Certain aminosterol compounds and pharmaceutical compositions including these compounds” (priority 1995, dated 1999).
Entries after “also recorded” stand apart in the source; their conditions may differ. One block for each compound: values may come before it.

Key:
HM = HM MTT assay; assay type: cell-based; settings: Table II; read-out: HM MTT assay, Minimum Effective Concentration
[1] = system: vitelline capillaries of chick embryo; assay: chick embryo vitelline capillary regression assay; assay type: in vivo
Experimental: Using the chick embryo vitelline capillaries assay, compounds were tested for their ability to induce capillary regression. Each compound was applied in 0.1 ml of 15% Ficol 400 and PBS onto the embryo, and vascular regression was assessed after 60 minutes.
The 3-day chick embryo consists of an embryonic disc from which numerous vessels emerge and return, forming a "figure 8"-shaped structure--the embryo in the center with vascular loops extending outward over both poles. […] Following a lag period of around 15 minutes, the constriction of continuity between capillary and secondary vessels, generally on the "venous" side, was observed. Continued pulsatile blood flow progressed, resulting in a "swelling" of the blind tube, followed by a pinching off of the remaining connection and formation of an enclosed vascular sac resembling a "blood island." This process progressed until only the largest vessels remained intact.

[2] = system: Human ovarian carcinoma SKOV3; assay: growth inhibition of SKOV3; assay type: cell-based
From the text: (§1) As set forth in Table 7 below, all malignant tumors evaluated in tissue culture, endothelial cells and vascular smooth muscle cells were sensitive to inhibition. Thus, compound 1436 has application in the control of growth factor dependent proliferation of many types of tissue.

[3] = fasting blood glucose in mice; assay type: in vivo, mouse; settings: intravenous; vs. Group 1
Experimental: To study the effect of steroid administrator or the NHE responsible for secretion of insulin, several of the aminosterols from shark liver were administered to fasting mice. Male CD-1 mice were assigned to one of four treatment groups. Whole blood glucose was tested using glucometer (Lifescan Glucometer II and One Touch test strips). Statistical analysis was via one-way analysis of variance (ANOVA) followed by subsequent Bonferonni's t-test.

[4] = system: Xenopus tadpole (stage 59-60); assay: Xenopus tadpole assay; assay type: in vivo, Xenopus laevis; settings: 10 μg/ml; about 1 hour
[5] = growth and weight gain of C57B mice; assay type: in vivo, mouse; settings: 10 mg/kg QTD i.p.; 6 doses, about 1 month
Experimental: Animals were dosed QTD (i.p.) starting on Day 1. […] Animals receiving 5 mg/kg QTD experienced about a 50% reduction in growth, compared to untreated controls, while animals receiving 1 mg/kg QTD were affected by about 10%. […] They appeared very much like hypophysectamized animals might appear.

[6] = system: Human coronary artery smooth muscle cells; assay: proliferation of human coronary artery smooth muscle in vitro; assay type: cell-based; settings: FIG. 15
From the text: as §1
Aminosterols of the invention may also have utility in inhibiting the growth factor mediated proliferation of smooth muscle within the artery. Following coronary angioplasty, reocclusion commonly occurs, secondary to reparative proliferation of the vascular smooth muscle within the wall of the surgically manipulated blood vessel. This process generally takes place over the course of 7-10 days. To evaluate whether an agent could prevent the growth factor mediated proliferation of smooth muscle within the artery, compound 1436 was evaluated in vitro for its effect on the proliferation of human coronary artery smooth muscle. Results for compound 1436 are shown in FIG. 13, and those for squalamine are shown in FIG. 14, with FIG. 15 being a composite logarithmic plot.

rabbit NHE3 = rabbit NHE3 (Oryctolagus cuniculus, UniProt P26432); assay: inhibition of rabbit NHE3 in transfected PS120 fibroblasts (internal pH, BCECF-AM); settings: 10 μg/ml; acid-preloaded 40 mM NH4Cl
[7] = arterial resistance in the rat after i.v. administration; assay type: in vivo
Experimental: A 200-g rat was catheterized in the right carotid artery, and the compound was introduced over a ten-second period to a total dosage of 5 mg/kg. Within 30 seconds, the mean arterial pressure had fallen from about 100 mm Hg to about 70 mm Hg, with a marked reduction in pulse pressure from about 40 mm to about 10 mm. […] If cardiac output was basically unaffected, reduction in blood pressure would have resulted principally from a reduction in system resistance.
At that time, 40 μg of noradrenaline was introduced.

B16 melanoma = assay: suppression of B16 melanoma growth in C57B mice; assay type: in vivo, mouse; settings: compound 1436 10 mg/kg/every 3 days alone
Experimental: The growth of B16 melanoma in C57B mice is dependent upon neovascularization.
Using the growth of B16 melanoma cells in C57B mice, a recognized model for the evaluation of inhibitors of angiogenesis on the growth of cancers, the effects of subcutaneous, intraperitoneal and oral administration of squalamine were evaluated.
Based on the idea that tumor growth involves both the clonal expansion of a malignant cell along with the development of a supporting vascular supply, a combination of compound 1436 with squalamine was tested to determine whether it would achieve a synergistic effect on solid tumor growth. This concept was evaluated in the B16 melanoma model.
Animals were implanted with B16 melanoma followed by treatment with compound 1436 or 1256 administered in a combined schedule or separately. […] Thus, a combination of these two compounds achieves a therapeutic benefit in tumors dependent on neovascularization that may prevent metastatic spread.

[8] = system: L1210 lymphoblastic leukemia; assay: mouse L1210 leukemia model, survival; assay type: in vivo; settings: highest dose, 10 mg/kg every 3 days i.p.
LLC = LLC MTT; assay type: cell-based; settings: Lewis lung carcinoma; Table II; read-out: LLC MTT, Minimum Effective Concentration

rabbit NHE3, sequence (P26432 30-832): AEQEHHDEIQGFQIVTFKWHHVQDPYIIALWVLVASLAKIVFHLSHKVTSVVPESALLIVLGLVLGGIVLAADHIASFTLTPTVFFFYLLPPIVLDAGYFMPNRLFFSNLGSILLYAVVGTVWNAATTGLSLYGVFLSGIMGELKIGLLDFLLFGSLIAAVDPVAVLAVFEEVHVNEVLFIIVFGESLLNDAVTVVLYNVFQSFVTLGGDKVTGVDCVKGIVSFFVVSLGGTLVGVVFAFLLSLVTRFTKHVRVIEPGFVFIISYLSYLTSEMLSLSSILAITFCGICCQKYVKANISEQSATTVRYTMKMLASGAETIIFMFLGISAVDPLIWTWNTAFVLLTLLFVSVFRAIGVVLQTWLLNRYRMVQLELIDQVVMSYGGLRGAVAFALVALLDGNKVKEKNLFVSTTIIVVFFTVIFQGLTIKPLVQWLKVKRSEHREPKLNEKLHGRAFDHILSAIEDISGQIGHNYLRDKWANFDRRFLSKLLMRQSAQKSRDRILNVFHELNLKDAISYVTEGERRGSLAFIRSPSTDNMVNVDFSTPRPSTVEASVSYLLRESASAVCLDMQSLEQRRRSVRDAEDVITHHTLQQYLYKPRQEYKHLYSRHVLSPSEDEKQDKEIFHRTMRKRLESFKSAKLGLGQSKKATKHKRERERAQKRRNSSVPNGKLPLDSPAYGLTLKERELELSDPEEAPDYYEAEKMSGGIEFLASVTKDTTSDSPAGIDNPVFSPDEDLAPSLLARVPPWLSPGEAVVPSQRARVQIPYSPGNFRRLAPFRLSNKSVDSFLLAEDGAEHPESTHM

Compound: CC(CCC(=O)O)[C@H]1CCC2C3C(CC[C@@]21C)[C@@]1(C)CC[C@@H](NCCCNCCCCN)CC1C[C@H]3O (single isomer, unassigned)
- minimal effective concentration (HM): 58.6 µg/mL
- Chick embryo diss. assay, Minimum Effective Concentration ([1]; Table II): 0.01 µg

Compound: CC(C)C(CO)(CC[C@@H](C)[C@H]1CC[C@H]2[C@@H]3[C@H](O)C[C@H]4C[C@@H](NCCCNCCCCN)CC[C@]4(C)[C@H]3CC[C@]12C)OS(=O)(=O)O (single isomer, unassigned) [Compound 1437]
- anticancer activity against SKOV3 [2]: anticancer activity against the human ovarian carcinoma, SKOV3
- fasting blood glucose effect [3]: caused hyperglycemia in mice
- tadpole response [4]: Epithelium covering the embryonic portions of the animal, such as the tail and antennae, began to slough off in sheets; also recorded: the larval skin was observed to shed off in a sheet

- inhibition of rabbit NHE3 (rabbit NHE3): inhibit rabbit NHE3
- reversibility of effect ([7]; 40 μg noradrenaline): readily reversible
Compound: CC(C)[C@@H](CC[C@@H](C)[C@H]1CC[C@H]2[C@@H]3[C@H](O)C[C@H]4C[C@@H](NCCCNCCCCNCCCN)CC[C@]4(C)[C@H]3CC[C@]12C)OS(=O)(=O)O [Compound 1436]
- growth inhibition in mice [5]: growth was almost completely inhibited
- fasting blood glucose effect [3]: caused hyperglycemia in mice
- suppression of growth of human coronary artery smooth muscle [6]: suppress in vitro the growth of human coronary artery smooth muscle
- effect on vitelline capillaries / chick embryo ([1]; in vivo): about the same potency as squalamine
- persistence of effect ([7]; followed for 30 minutes): without significant change
- tadpole response [4]: common vascular occlusive effect; also recorded: Gradual reduction in overall activity; also recorded: Heart beat remained strong, suggesting nervous system depression; also recorded: Melanocytes over head and tail began to swell; also recorded: dramatic disruption of melanocytes over its head, trunk, and tail; also recorded: No effects are observed on epithelial cell integrity, vascular flow, erythrocyte volume, tissue integrity, muscle fiber striation, or GI tract activity
- impact on tumor volume (B16 melanoma): no significant impact on tumor volume
- prolongation of life [8]: significant prolongation of life

Compound: CC(C)CCC[C@@H](C)[C@H]1CC[C@H]2[C@@H]3CC[C@H]4C[C@@H](NCCCNCCCCNCCCN)CC[C@]4(C)[C@H]3CC[C@]12C [drawing 82]
- minimal effective concentration (LLC): 3 µg/mL
